Results as given in the supplement of paper PMC5908809.

Legend:
[1] = tested on: normal NK cells expanded with K562-aAPC; test: drug sensitivity score (DSS) (DSS units); higher = more sensitive; extreme values may be limits of the assay; conditions: 72 h; IL-2 2.5 ng/mL
Description: (§1)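 Drug sensitivity and resistance testing on K562-aAPC-expanded normal NK cells: 5 concentrations (10-fold steps over a 10,000-fold range), 72 h at 37 °C, viability by CellTiter-Glo normalised to DMSO and benzethonium chloride controls; DSS from the fitted curve.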

NK-YS (IL-2 2.5 ng/mL) [2] = test: as above; conditions: 72 h
KHYG-1 (IL-2 2.5 ng/mL) [3] = test: as above; conditions: 72 h
[4] = tested on: normal primary NK cells, pool 1 (3 donors), resting (IL-2 0 ng/mL); test: as above; conditions: 72 h
[5] = tested on: normal primary NK cells, pool 1 (3 donors) (IL-2 2.5 ng/mL); test: as above; conditions: 72 h
YT (IL-2 2.5 ng/mL) [6] = test: as above; conditions: 72 h
DERL-7 (IL-2 2.5 ng/mL) [7] = test: as above; conditions: 72 h
KAI3 (IL-2 2.5 ng/mL) [8] = test: as above; conditions: 72 h
NKL (IL-2 2.5 ng/mL) [9] = test: as above; conditions: 72 h
SNK-6 (IL-2 2.5 ng/mL) [10] = test: as above; conditions: 72 h
IMC-1 (IL-2 20 ng/mL) [11] = test: as above; conditions: 72 h
[12] = tested on: normal primary NK cells, pool 3 (3 donors) (IL-2 2.5 ng/mL); test: as above; conditions: 72 h
NK-92 (IL-2 2.5 ng/mL) [13] = test: as above; conditions: 72 h
[14] = tested on: normal primary NK cells, pool 2 (3 donors) (IL-2 2.5 ng/mL); test: as above; conditions: 72 h
NK-YS (IL-2 2.5 ng/mL) [15] = test: percent inhibition of viability; higher = more inhibition; conditions: 72 h
KHYG-1 (IL-2 2.5 ng/mL) [16] = test: as above; conditions: 72 h
[17] = tested on: normal primary NK cells, pool 1 (3 donors), resting (IL-2 0 ng/mL); test: as above; conditions: 72 h
[18] = tested on: normal primary NK cells, pool 1 (3 donors) (IL-2 2.5 ng/mL); test: as above; conditions: 72 h
YT (IL-2 2.5 ng/mL) [19] = test: as above; conditions: 72 h
DERL-7 (IL-2 2.5 ng/mL) [20] = test: as above; conditions: 72 h
KAI3 (IL-2 2.5 ng/mL) [21] = test: as above; conditions: 72 h
NKL (IL-2 2.5 ng/mL) [22] = test: as above; conditions: 72 h
SNK-6 (IL-2 2.5 ng/mL) [23] = test: as above; conditions: 72 h
IMC-1 (IL-2 20 ng/mL) [24] = test: as above; conditions: 72 h
[25] = tested on: normal primary NK cells, pool 3 (3 donors) (IL-2 2.5 ng/mL); test: as above; conditions: 72 h
NK-92 (IL-2 2.5 ng/mL) [26] = test: as above; conditions: 72 h
[27] = tested on: normal primary NK cells, pool 2 (3 donors) (IL-2 2.5 ng/mL); test: as above; conditions: 72 h
[28] = tested on: normal NK cells expanded with K562-aAPC; test: as above; conditions: 72 h, IL-2 2.5 ng/mL
Description: as §1

CCN1CCN(Cc2ccc(Nc3ncc(F)c(-c4cc(F)c5nc(C)n(C(C)C)c5c4)n3)nc2)CC1 [Abemaciclib] (max concentration tested 2500 nM)
Conditions | drug sensitivity score
DERL-7 (IL-2 2.5 ng/mL) [7] | 10.8
IMC-1 (IL-2 20 ng/mL) [11] | 4.41
KAI3 (IL-2 2.5 ng/mL) [8] | 0.01
KHYG-1 (IL-2 2.5 ng/mL) [3] | 9.69
NK-92 (IL-2 2.5 ng/mL) [13] | 3.33
NK-YS (IL-2 2.5 ng/mL) [2] | 8.19
NKL (IL-2 2.5 ng/mL) [9] | 1.33
SNK-6 (IL-2 2.5 ng/mL) [10] | 0.14
YT (IL-2 2.5 ng/mL) [6] | 0
[1] | 3.89
[4] | 0.89
[5] | 2.05
[12] | 0
[14] | 2.85

percent inhibition of viability [%]
Conditions | 0.25 nM | 2.5 nM | 25 nM | 250 nM | 2500 nM
DERL-7 (IL-2 2.5 ng/mL) [20] | -4.64 | -2.09 | 8.58 | 51.3 | 73.9
IMC-1 (IL-2 20 ng/mL) [24] | 1.3 | -5.47 | -5.79 | -18.8 | 97.5
KAI3 (IL-2 2.5 ng/mL) [21] | -4.55 | -3.34 | -6.9 | -4.76 | 11.8
KHYG-1 (IL-2 2.5 ng/mL) [16] | -1.33 | -1.51 | -0.04 | 42.8 | 79.8
NK-92 (IL-2 2.5 ng/mL) [26] | -9.23 | 0.87 | -2.31 | 7.25 | 42
NK-YS (IL-2 2.5 ng/mL) [15] | -3.7 | -3.12 | 0.09 | 18 | 95
NKL (IL-2 2.5 ng/mL) [22] | -11.9 | -8.91 | -19.3 | -11.8 | 38
SNK-6 (IL-2 2.5 ng/mL) [23] | 22.8 | 13.2 | 4.72 | 15.4 | 29.8
YT (IL-2 2.5 ng/mL) [19] | -0.11 | 3.29 | -1.68 | 5.51 | 7.94
[17] | -12.7 | -5.25 | -10.3 | -47.3 | -83.7
[18] | -4.8 | -6.62 | -2.33 | 9.08 | 24.4
[25] | -10.9 | -4.53 | -8.73 | -3.71 | 11.1
[27] | -7.88 | -7.14 | 0.77 | 1.36 | 50.7
[28] | 2.02 | -3.3 | 4.81 | 17.7 | 41.3

CCc1cc2c(cc1N1CCC(N3CCOCC3)CC1)C(C)(C)c1[nH]c3cc(C#N)ccc3c1C2=O [Alectinib] (max concentration tested 1000 nM)
Conditions | drug sensitivity score
DERL-7 (IL-2 2.5 ng/mL) [7] | 0.02
IMC-1 (IL-2 20 ng/mL) [11] | 0
KAI3 (IL-2 2.5 ng/mL) [8] | 0
KHYG-1 (IL-2 2.5 ng/mL) [3] | 0.86
NK-92 (IL-2 2.5 ng/mL) [13] | 2.08
NK-YS (IL-2 2.5 ng/mL) [2] | 1.14
NKL (IL-2 2.5 ng/mL) [9] | 0.33
SNK-6 (IL-2 2.5 ng/mL) [10] | 0
YT (IL-2 2.5 ng/mL) [6] | 0
[1] | 0
[4] | 0.17
[5] | 0
[12] | 0
[14] | 0

percent inhibition of viability [%]
Conditions | 0.1 nM | 1 nM | 10 nM | 100 nM | 1000 nM
DERL-7 (IL-2 2.5 ng/mL) [20] | -1.51 | -2.79 | -1.59 | -8.82 | 13
IMC-1 (IL-2 20 ng/mL) [24] | -2.94 | 1.06 | -2.15 | -2.79 | -0.64
KAI3 (IL-2 2.5 ng/mL) [21] | -3.74 | 3.89 | 3.63 | 1.36 | -4
KHYG-1 (IL-2 2.5 ng/mL) [16] | -3.94 | 0.6 | -1.88 | 10.3 | 14.5
NK-92 (IL-2 2.5 ng/mL) [26] | -7.49 | -8.89 | -12 | 9.46 | 24.4
NK-YS (IL-2 2.5 ng/mL) [15] | -5.67 | -3.61 | -7.75 | 6.14 | 18.4
NKL (IL-2 2.5 ng/mL) [22] | -9 | -7.92 | -11.6 | -10.4 | 20.1
SNK-6 (IL-2 2.5 ng/mL) [23] | -2.43 | -0.7 | -18.9 | -29 | -2.44
YT (IL-2 2.5 ng/mL) [19] | -3.8 | -4.08 | -6.26 | 0.11 | 2.48
[17] | -6.37 | -4.08 | -8.77 | 1.83 | 12.5
[18] | -1.7 | -9.82 | -10.4 | -1.45 | 0.6
[25] | -8.17 | -9.65 | -5.32 | -8.21 | -0.39
[27] | -3.03 | -7.68 | -3.35 | -8.46 | 3.39
[28] | 0.14 | -2.95 | -2.33 | -2.36 | 4.52
